Data from ChEMBL document CHEMBL1201862, “PubChem BioAssay data set” (2004).
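Tested at 5 concentrations; 48 h exposure; 96-well plates; endpoints linearly interpolated, else capped at highest concentration. GI50 is the concentration that inhibits growth by half.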 Activity calls are given as the source filed them. Cut-off read from the data, not from the text of the source: active = GI50 up to about 1.1 µM and inactive = higher.

Key:
Assay in all cases: inhibition of tumour cell growth, NCI panel, 48 h
[1] = tested on: SNB-19
[2] = tested on: SK-MEL-5
[3] = tested on: SF-295
[4] = tested on: UACC-62
[5] = tested on: LOX IMVI
[6] = tested on: SK-OV-3
[7] = tested on: IGROV-1
[8] = tested on: NCI-H460
[9] = tested on: OVCAR-3
[10] = tested on: BT-549
[11] = tested on: Hs-578T
[12] = tested on: HCC 2998
[13] = tested on: SF-268
[14] = tested on: MOLT-4
[15] = tested on: SN12C
[16] = tested on: ACHN
[17] = tested on: PC-3
[18] = tested on: NCI-H226
[19] = tested on: HL-60
[20] = tested on: HOP-92

Compound	GI50 [1]	GI50 [2]	GI50 [3]	GI50 [4]	GI50 [5]	GI50 [6]	GI50 [7]	GI50 [8]	GI50 [9]	GI50 [10]	GI50 [11]	GI50 [12]	GI50 [13]	GI50 [14]	GI50 [15]	GI50 [16]	GI50 [17]	GI50 [18]	GI50 [19]	GI50 [20]
O=[N+]([O-])c1sc2ccc(Cl)cc2c1Nc1ccc(Cl)cc1	> 100 µM (inactive)	> 100 µM (inactive)	> 100 µM (inactive)	> 100 µM (inactive)	> 100 µM (inactive)	> 100 µM (inactive)	> 100 µM (inactive)	> 100 µM (inactive)	> 100 µM (inactive)	> 100 µM (inactive)	> 100 µM (inactive)	> 100 µM (inactive)	> 100 µM (inactive)	> 100 µM (inactive)	> 100 µM (inactive)	> 100 µM (inactive)	> 100 µM (inactive)	> 100 µM (inactive)	> 100 µM (inactive)	
C/C1=C/C2OC(=O)C3(C)C2C(CC2(C)OC1=CC2=O)OC3(O)C(C)C (centres undefined)	42.5 µM (inactive)	23.6 µM (inactive)	29.4 µM (inactive)	20.6 µM (inactive)	31.4 µM (inactive)	46 µM (inactive)	35.3 µM (inactive)	42.5 µM (inactive)	31.2 µM (inactive)	5.2 µM (inactive)	59 µM (inactive)	20.9 µM (inactive)	38.9 µM (inactive)	29.4 µM (inactive)	31.4 µM (inactive)	33.9 µM (inactive)	40.8 µM (inactive)	33.5 µM (inactive)	18.7 µM (inactive)	
CCCCP(CCCC)(CCCC)=C(C(=O)OC)C(C(=O)OC)=C1SC(C(=O)OC)=C(C(=O)OC)S1	20.3 µM (inactive)	16.2 µM (inactive)	19.3 µM (inactive)	14.1 µM (inactive)	13.2 µM (inactive)	25.8 µM (inactive)	11.6 µM (inactive)	16 µM (inactive)	19.3 µM (inactive)	15.7 µM (inactive)	18.5 µM (inactive)		30.6 µM (inactive)	11.9 µM (inactive)	15.5 µM (inactive)	22.9 µM (inactive)	11.1 µM (inactive)	20 µM (inactive)		
COc1ccc(/C=N/NC(=O)O)cc1	> 100 µM (inactive)	> 100 µM (inactive)	> 100 µM (inactive)	> 100 µM (inactive)	> 100 µM (inactive)	> 100 µM (inactive)	> 100 µM (inactive)	> 100 µM (inactive)	> 100 µM (inactive)	> 100 µM (inactive)	> 100 µM (inactive)	88.5 µM (inactive)		> 100 µM (inactive)	> 100 µM (inactive)	> 100 µM (inactive)	> 100 µM (inactive)			
COc1cc2c(c(N)c1OC)C(=O)/C(=C/c1cc(C)c(O)c(C)c1)C2	< 0.01 µM (active)	< 0.01 µM (active)	0.0562 µM (active)	< 0.01 µM (active)	< 0.01 µM (active)	< 0.01 µM (active)	0.0367 µM (active)	< 0.01 µM (active)	< 0.01 µM (active)	9.68 µM (inactive)		1.95 µM (inactive)	< 0.01 µM (active)	< 0.01 µM (active)	< 0.01 µM (active)		< 0.01 µM (active)	4.19 µM (inactive)	< 0.01 µM (active)	> 100 µM (inactive)
CC(C)(C)c1ccc(-c2nnc(-c3cc(C#N)cc(-c4nnc(-c5ccc(C(C)(C)C)cc5)o4)c3)o2)cc1	> 100 µM (inactive)	> 100 µM (inactive)	> 100 µM (inactive)	> 100 µM (inactive)	> 100 µM (inactive)	> 100 µM (inactive)	> 100 µM (inactive)	> 100 µM (inactive)	> 100 µM (inactive)	> 100 µM (inactive)	33 µM (inactive)	> 100 µM (inactive)	> 100 µM (inactive)	> 100 µM (inactive)	> 100 µM (inactive)	> 100 µM (inactive)	> 100 µM (inactive)	> 100 µM (inactive)		> 100 µM (inactive)
C#Cc1cccc(N2C(=O)CCC2=O)c1	31.4 µM (inactive)	20.5 µM (inactive)	15.6 µM (inactive)	18.2 µM (inactive)	16.8 µM (inactive)	21 µM (inactive)	21.5 µM (inactive)	27.5 µM (inactive)	18.9 µM (inactive)	> 10 µM (inactive)	17.3 µM (inactive)	15 µM (inactive)	17.7 µM (inactive)	2.77 µM (inactive)	18.5 µM (inactive)	16.7 µM (inactive)	15.2 µM (inactive)	17.5 µM (inactive)	2.25 µM (inactive)	
Cc1ccc(-c2c(C#N)c(S)n(NS(=O)(=O)c3ccc(C)cc3)c(=O)c2C#N)cc1	21.6 µM (inactive)	21 µM (inactive)	23.1 µM (inactive)	28.5 µM (inactive)	27.2 µM (inactive)	45 µM (inactive)	16.7 µM (inactive)		34.7 µM (inactive)	16.6 µM (inactive)		5.19 µM (inactive)		24.2 µM (inactive)	31.5 µM (inactive)	20.6 µM (inactive)	22.8 µM (inactive)	11.7 µM (inactive)	14.9 µM (inactive)	22.6 µM (inactive)
